Active and inactive are the calls of the source. The calls are words filed in the database; no cut-off is given here.
What was measured:
[1] = molecular target: T1, Tyrosine-protein phosphatase non-receptor type 1 (Homo sapiens) (UniProt P18031); assay: Inhibition of PTP1B in human Huh7 cells assessed as increase in phosphorylated Akt level at 20 uM after 2 hrs by Western blot analysis; format: cell-based; settings: Huh-7
T1 sequence (whole entry): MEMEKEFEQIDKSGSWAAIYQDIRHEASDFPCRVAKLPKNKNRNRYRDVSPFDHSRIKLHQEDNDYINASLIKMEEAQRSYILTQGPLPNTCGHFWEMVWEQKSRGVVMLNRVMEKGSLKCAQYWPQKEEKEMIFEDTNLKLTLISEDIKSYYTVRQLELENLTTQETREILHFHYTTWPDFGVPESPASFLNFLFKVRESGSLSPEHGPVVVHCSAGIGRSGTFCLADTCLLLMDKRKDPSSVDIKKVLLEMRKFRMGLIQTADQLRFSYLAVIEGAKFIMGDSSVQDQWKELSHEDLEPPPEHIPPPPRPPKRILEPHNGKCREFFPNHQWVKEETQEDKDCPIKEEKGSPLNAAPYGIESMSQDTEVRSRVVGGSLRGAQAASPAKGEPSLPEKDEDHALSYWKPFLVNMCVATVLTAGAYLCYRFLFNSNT

[2] = Cytotoxicity against human HuH7 cells assessed as cell viability after 72 hrs by WST-1 assay; format: cell-based; settings: Huh-7, 72 h
[3] = molecular target: T2, Tyrosine-protein phosphatase non-receptor type 1 (Homo sapiens, UniProt P18031); assay: Inhibition of recombinant human PTP1B using pNPP as substrate incubated for 10 mins prior to substrate addition measured after 30 mins by microplate reader analysis
T2 sequence (P18031 whole entry): T1 sequence (whole entry)

[4] = molecular target: T1, Tyrosine-protein phosphatase non-receptor type 1 (Homo sapiens); assay: Inhibition of PTP1B in human Huh7 cells assessed as increase in insulin-stimulated phosphorylated Akt level at 20 uM preincubated for 2 hrs followed by insulin stimulation for 5 mins by Western blot analysis; format: cell-based; settings: Huh-7
[5] = molecular target: T1, Tyrosine-protein phosphatase non-receptor type 1 (Homo sapiens); assay: Inhibition of PTP1B in human Huh7 cells assessed as increase in insulin-stimulated phosphorylated Akt level at 50 uM preincubated for 2 hrs followed by insulin stimulation for 5 mins by Western blot analysis; format: cell-based; settings: Huh-7
[6] = Cytotoxicity against human EJ1 cells assessed as cell viability after 72 hrs by WST-1 assay; format: cell-based; settings: EJ1, 72 h
[7] = molecular target: T1, Tyrosine-protein phosphatase non-receptor type 1 (Homo sapiens); assay: Inhibition of PTP1B in human Huh7 cells assessed as increase in phosphorylated Akt level at 50 uM after 2 hrs by Western blot analysis; format: cell-based; settings: Huh-7
[8] = molecular target: T1, Tyrosine-protein phosphatase non-receptor type 1 (Homo sapiens); assay: Inhibition of recombinant human PTP1B using pNPP as substrate at 24 uM incubated for 10 mins prior to substrate addition measured after 30 mins by microplate reader analysis
[9] = molecular target: T1, Tyrosine-protein phosphatase non-receptor type 1 (Homo sapiens); assay: Inhibition of recombinant human PTP1B using pNPP as substrate at 36 uM incubated for 10 mins prior to substrate addition measured after 30 mins by microplate reader analysis
[10] = molecular target: T1, Tyrosine-protein phosphatase non-receptor type 1 (Homo sapiens); assay: Inhibition of PTP1B in human Huh7 cells assessed as increase in insulin-stimulated phosphorylated Akt level preincubated for 2 hrs followed by insulin stimulation for 5 mins by Western blot analysis; format: cell-based; settings: Huh-7

inhibition [1] | IC50 [3] | inhibition [4] | inhibition [5] | inhibition [7] | inhibition [10] | Compound | IC50 [2] | IC50 [6] | inhibition [8] | inhibition [9]
inactive | > 45 µM | inactive | inactive | inactive | – | CC(C)=CCC[C@](C)(N)[C@H]1CC=C(C)CC1 | > 50 µM | > 50 µM | – | –
– | – | – | – | – | – | C=C(C)[C@@H](C)/C=C/[C@@H](C)[C@H]1CC[C@@H]2[C@]1(C)CC[C@H]1[C@]23C=C[C@]2(C[C@@H](O)CC[C@]12C)OO3 | 26 µM | 21 µM | 50% | –
– | – | – | – | – | – | CC(C)[C@@H]1CC[C@](C)(N=C=S)[C@@H]2CC[C@@](C)(O)C=C12 [AXINISOTHIOCYANATE J] | > 50 µM | > 50 µM | – | 50%
– | – | – | – | – | – | COc1cccc2c1C(=O)c1c(O)c3c(c(O)c1C2=O)C[C@@](O)(C(=O)CO)C[C@@H]3O[C@H]1C[C@H](N)[C@H](O)[C@H](C)O1 [DOXORUBICIN] | – | 0.023 µM | – | –
– | 17 µM | – | – | – | – | CC1=C[C@H]2[C@@H](CC1)[C@@](C)(N=C=S)CC[C@H]2C(C)C | > 50 µM | > 50 µM | – | –
inactive | 1.9 µM | – | – | inactive | Dose-dependent effect | CC(C)=CCC[C@](C)(NC(=O)N[C@@](C)(CCC=C(C)C)[C@H]1CC=C(C)CC1)[C@H]1CC=C(C)CC1 | > 50 µM | > 50 µM | – | –

— ChEMBL document CHEMBL3745610, “A dimeric urea of the bisabolene sesquiterpene from the Okinawan marine sponge Axinyssa sp. inhibits protein tyrosine phosphatase 1B activity in Huh-7 human hepatoma cells” (Bioorg Med Chem Lett, 2016)
